Results published in patent US20130244255A1, “ANTIBODIES DIRECTED TO GPNMB AND USES THEREOF” (priority 2006, published 2013).

Experiments:
[1] = tested on: CG56972-expressing cancer cell lines; test: Growth of CG56972-expressing cells with naked CR011; format: cell-based, human; conditions: used directly, unconjugated
[2] = tested on: A2058; test: Clonogenic assay with 1.15.1-AE; format: cell-based, human
Method: (§1) Melanoma cell lines were plated onto flat bottom 96-well tissue culture plates (Becton Dickinson, Franklin Lakes, N.J., USA). On day 2 or when cells reach ˜25% confluency, various concentrations of unconjugated and Auristatin E-conjugated 1.15.1 were added to cells. MAb 2.6.2-AE was also used as a conjugated isotype control in this study. On day 5, the cells were trypsinized, transferred to 6-well tissue culture plates and incubated at 37° C. Plates were examined daily. On days 8-10, all plates were Giemsa stained and colonies on the plates were counted.

[3] = tested on: HEMNLP; test: Clonogenic assay with 1.15.1-AE; format: cell-based, human
Method: as §1

[4] = tested on: HT144; test: Clonogenic assay with 1.15.1-AE; format: cell-based, human
Method: as §1

[5] = tested on: LOXIMVI; test: Clonogenic assay with 1.15.1-AE; format: cell-based, human
Method: as §1

[6] = tested on: M14; test: Clonogenic assay with 1.15.1-AE; format: cell-based, human
Method: as §1

[7] = tested on: MEWO; test: Clonogenic assay with 1.15.1-AE; format: cell-based, human
Method: as §1

[8] = tested on: CCRF-CEM; test: Clonogenic assay (methylcellulose) with 1.15.1-AE; format: cell-based, human
Method: (§2) Lymphoma or leukemia cell lines were mixed with methylcellulose base media (R&D Systems, USA) and in various concentrations of unconjugated and Auristatin E-conjugated 1.15.1 antibody before plating onto 6-well tissue culture plates (Becton Dickinson, Franklin Lakes, N.J., USA). […] Plates were incubated at 37° C. and examined daily. On days 14-18, colonies on the plates were counted.

[9] = tested on: DEL; test: Clonogenic assay (methylcellulose) with 1.15.1-AE; format: cell-based, human
Method: as §2

[10] = tested on: Jurkat; test: Clonogenic assay (methylcellulose) with 1.15.1-AE; format: cell-based, human
Method: as §2

[11] = tested on: KG-1; test: Clonogenic assay (methylcellulose) with 1.15.1-AE; format: cell-based, human
Method: as §2

[12] = tested on: Karpas 299; test: Clonogenic assay (methylcellulose) with 1.15.1-AE; format: cell-based, human
Method: as §2

[13] = tested on: MOLT-4; test: Clonogenic assay (methylcellulose) with 1.15.1-AE; format: cell-based, human
Method: as §2

[14] = tested on: PL-21; test: Clonogenic assay (methylcellulose) with 1.15.1-AE; format: cell-based, human
Method: as §2

[15] = tested on: SU-DHL-1; test: Clonogenic assay (methylcellulose) with 1.15.1-AE; format: cell-based, human
Method: as §2

[16] = tested on: SUP-M2; test: Clonogenic assay (methylcellulose) with 1.15.1-AE; format: cell-based, human
Method: as §2

[17] = tested on: SK-MEL-2 melanoma xenografts; test: Dosing interval (schedule dependency) study, SK-MEL-2 xenograft; format: in vivo, athymic mice
Method: Nota bene: Please note that, although all 5 sets of groups in this experiment (e.g., groups 5, 6, and 7 represent one set and received 32, 8, and 2 mg/kg cumulative dose, respectively) received the same cumulative doses, the first set receiving the “bolus dose” is different from the other 4 sets. The Cmax for each group in the “bolus” set was likely four-fold higher that the Cmax for the other 4 sets (see section on pharmacokinetics for dose-linearity after i.v. administration), since 4 sets of groups received 4 treatments, whereas the first set received only one “bolus” treatment (see column 7, Table 49 below).
The aggregate responses for each set of groups, where a set is defined as 3 groups of graduated dosage levels but one dosage interval (groups 5, 6, and 7 represent 1 set, all of which were treated with a dosing interval of 1 day) are shown in FIG. 7. […] However, this effect was not significant (P<0.2904).
The original design of this study was expanded to include an examination of the effects of various dosage levels. For each set, one group of animals received a cumulative dose of 8 mg/kg, which, from previous studies employing a dosing interval of 4 days, provided consistent therapeutic effects leading to long-term tumor-free animals. In addition, cumulative doses of 2 mg/kg and 32 mg/kg were employed.

[18] = tested on: human interleukin-8; test: Plasma human IL-8 (ELISA) in SK-MEL-2 xenograft-bearing athymic mice; format: in vivo
Method: Interleukin-8 (IL-8) was measured by an enzyme-linked immunosorbent assay using a commercial kit (Human CXCL8/IL-8 Quantikine ELISA Kit, 3rd Generation; R&D Systems, Minneapolis, Minn.), which recognizes human, but not mouse, IL-8. Assays were conducted according to the manufacturer's instructions in which the IL-8 was detected by binding to IL-8 specific mAb pre-coated onto 96-well microliter plate. Standards and samples were pipetted into the wells and human IL-8 was bound by the immobilized antibody. After washing away the unbound substances, horseradish peroxidase-conjugated IL-8 specific polyclonal antibody was added to the wells. Following a wash, substrate solution was added and color developed; the plate was read on an ELISA plate reader. Results were calculated from a standard curve, generated by a four-parameter logistic curve fit, and expressed in picograms per milliliter. The lower limit of quantitation of the assay was 3.5 pg/mL and for each timepoint, n=3 mice. No human IL-8 could be detected in the blood of normal (non-tumor-bearing) athymic mice.
Plasma concentrations of human IL-8 were measured by the species-specific ELISA assay described in Materials and Methods. At the beginning of treatment (day 16), the human IL-8 level in plasma was 29.8 pg/ml. […] At day 30 (14 days after treatment), plasma IL-8 level was not detected and remained undetectable for the duration of the experiment (FIG. 26).

[19] = tested on: SK-MEL-2 human melanoma xenograft; test: SK-MEL-2 human melanoma xenograft in athymic mice; format: in vivo; conditions: observation period >200 days

**Q.** Which results are given for “CR011: fully human monoclonal antibody that specifically binds to GPNMB; VH SEQ ID NO: 20, VL SEQ ID NO: 29”?
**A.** effect of naked antibody on CG56972 expressing cells (in words) [1]: did not inhibit the growth; effect of naked antibody on CG56972 expressing cells (in words) ([1]; listed as CR011 IgG2 mAb): no effect

**Q.** “CR011-vcMMAE: CR011 conjugated to monomethyl auristatin E through a protease cleavable valine-citrulline linker; approx. 4 drugs per antibody” was tested. Which “Clonogenic Assay with 1.15.1-AE IC50 in ng/mL” value (shortened to “Clonogenic Assay”) [2] did it give?
**A.** No effect

**Q.** What about the “Clonogenic Assay” value [3] of the same substance?
**A.** Inconclusive

**Q.** And the “Clonogenic Assay” value [4]?
**A.** Inconclusive

**Q.** What about the “Clonogenic Assay” value [5] of the same substance?
**A.** No effect

**Q.** And the “Clonogenic Assay” value [6]?
**A.** Inconclusive

**Q.** What about the “Clonogenic Assay” value [7] of the same substance?
**A.** Inconclusive

**Q.** What about the “Clonogenic Assay” value [8] of the same substance?
**A.** No growth

**Q.** What about the “Clonogenic Assay” value [9] of the same substance?
**A.** No effect

**Q.** And the “Clonogenic Assay” value [10]?
**A.** No effect (repeating)

**Q.** What about the “Clonogenic Assay” value [11] of the same substance?
**A.** No growth

**Q.** What about the “Clonogenic Assay” value [12] of the same substance?
**A.** Inconclusive

**Q.** What about the “Clonogenic Assay” value [13] of the same substance?
**A.** No effect (repeating)

**Q.** And the “Clonogenic Assay” value [14]?
**A.** No effect

**Q.** What about the “Clonogenic Assay” value [15] of the same substance?
**A.** No effect

**Q.** And the “Clonogenic Assay” value [16]?
**A.** No growth

**Q.** And the complete regressors ([17]; 2 mg/kg cumulative dose)?
**A.** 13%

**Q.** And the complete regressions ([17]; 8 mg/kg cumulative dose, all dosing intervals (28/30))?
**A.** 93%

**Q.** And the complete regressions ([17]; cumulative dose of 32 mg/kg, all dosing intervals (30 test animals))?
**A.** 100%

**Q.** And the “schedule dependency of anti-tumor effects” value ([17]; dosing intervals 0, 1, 4, 8, 16 days)?
**A.** not schedule-dependent

**Q.** What about the “plasma IL-8 level” value ([18]; 1 mg/kg single bolus, day 17.5 (1.5 days after treatment)) of the same substance?
**A.** 46.3 pg/mL

**Q.** And the “plasma IL-8 level” value ([18]; 1 mg/kg single bolus, day 58 (42 days after treatment))?
**A.** 414.63 pg/mL

**Q.** What about the “plasma IL-8 level” value ([18]; 10 mg/kg single bolus, day 17.5 (1.5 days after treatment)) of the same substance?
**A.** 52.85 pg/mL

**Q.** What about the “plasma IL-8 level” value ([18]; 10 mg/kg single bolus, day 23 (7 days after treatment)) of the same substance?
**A.** 24.39 pg/mL

**Q.** And the “plasma IL-8 level” value ([18]; 10 mg/kg single bolus, day 30 (14 days after treatment) and after, lower limit of quantitation 3.5 pg/mL)?
**A.** not detected

**Q.** What about the “re-growth of completely regressed tumors” value [19] of the same substance?
**A.** did not re-grow
